Source: publication PMC8218635, “Structural Insights into the Mechanisms of Action of Functionally Distinct Classes of Chikungunya Virus Nonstructural Protein 1 Inhibitors” (Antimicrobial Agents and Chemotherapy, 2021)
Read-outs that look alike come from different tables or passages of the source.

Experiments:
CHIKV = experiment: microbe, parasite or virus in culture; type: cell-based
SFV = experiment: microbe, parasite or virus in culture; type: cell-based; conditions: multicycle CPE reduction assay, Vero E6 cells, NA = not active
rCHIKV P34S = type: cell-based, Chikungunya virus; conditions: for Fold resistance, rCHIKV P34S: (EC50 for the variant)/(EC50 for the wt); for EC50: CPE reduction assay, Vero E6 cells; for Sensitivity or resistance of CHIKV nsP1-P34S to the compound: at the concentrations tested, Fig. 2
rCHIKV G230R + K299E = type: cell-based, Chikungunya virus; conditions: for Fold resistance, rCHIKV G230R + K299E: (EC50 for the variant)/(EC50 for the wt); for EC50: CPE reduction assay, Vero E6 cells; for Sensitivity or resistance of CHIKV nsP1-G230R+K299E to the compound: Fig. 2
rCHIKV S454G + W456R = type: cell-based, Chikungunya virus; conditions: for Fold resistance, rCHIKV S454G + W456R: (EC50 for the variant)/(EC50 for the wt); for EC50: CPE reduction assay, Vero E6 cells; for Sensitivity or resistance of CHIKV nsP1-S454G+W456R to the compound: at the doses tested, Fig. 2
SINV = test system: SINV; set-up: method as in PMID 31964798; conditions: cited from earlier work
wt SFV nsP1 [1] = biological target: T1, wt SFV nsP1 (Semliki forest virus, UniProt P08411); set-up: method as in PMID 31964798; conditions: cited from earlier work
T1 sequence (P08411 1-537 limits assumed): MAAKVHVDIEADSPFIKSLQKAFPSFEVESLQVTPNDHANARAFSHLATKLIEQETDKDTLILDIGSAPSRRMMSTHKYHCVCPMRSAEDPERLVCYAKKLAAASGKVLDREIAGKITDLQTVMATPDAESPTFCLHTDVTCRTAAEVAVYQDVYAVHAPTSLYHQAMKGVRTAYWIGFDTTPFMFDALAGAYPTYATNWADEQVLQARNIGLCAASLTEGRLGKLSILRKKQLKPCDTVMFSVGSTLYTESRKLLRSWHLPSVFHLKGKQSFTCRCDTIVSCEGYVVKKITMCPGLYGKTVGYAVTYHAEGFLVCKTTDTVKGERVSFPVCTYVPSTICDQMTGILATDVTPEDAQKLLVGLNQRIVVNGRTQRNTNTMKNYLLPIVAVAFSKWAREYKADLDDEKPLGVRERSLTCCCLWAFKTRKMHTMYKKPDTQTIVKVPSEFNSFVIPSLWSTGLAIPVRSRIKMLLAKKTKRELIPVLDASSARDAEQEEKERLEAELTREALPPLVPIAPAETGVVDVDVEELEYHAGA

wt SFV nsP1 [2] = biological target: T1, wt SFV nsP1; type: biochemical; conditions: for Inhibition of formation of the covalent [32P]m7GMP-nsP1 complex: wt SFV nsP1, 100 μM SAM, inhibitor 50 μM to 1 mM, Fig. 3A
wt CHIKV nsP1 = wt CHIKV nsP1 (Chikungunya virus, UniProt Q8JUX6); type: biochemical; conditions: wt CHIKV nsP1, 10 μM SAM; for Inhibition of formation of the covalent [32P]m7GMP-nsP1 intermediate: inhibitor 0.5 to 32 μM, Fig. 3C
VEEV nsP1 = conditions: cited from earlier work
CHIKV nsP1 = conditions: enzymatic assays measuring either MTase or GTase activity; cited from earlier work
in vitro = conditions: African green monkey
[3] = Chikungunya virus, Vero C1008, 96 h, read-out: EC50, concentration that reduces virus-induced CPE by 50%, CHIKV, multicycle CPE reduction assay, Vero E6 cells, 96 h
[4] = Chikungunya virus, Vero C1008, read-out: EC50 for wt CHIKV, Table 2, wt CHIKV, CPE reduction assay, Vero E6 cells

Row | Compound | Fold resistance, rCHIKV P34S (rCHIKV P34S) | EC50 (rCHIKV P34S) [µM] | Fold resistance, rCHIKV G230R + K299E (rCHIKV G230R + K299E) | EC50 (rCHIKV G230R + K299E) [µM] | Sensitivity or resistance of CHIKV nsP1-G230R+K299E to the compound (rCHIKV G230R + K299E) | Fold resistance, rCHIKV S454G + W456R (rCHIKV S454G + W456R) | EC50 (CHIKV; [3]) [µM] | EC50 (CHIKV; [4]) [µM] | Sensitivity or resistance of CHIKV nsP1-P34S to the compound (rCHIKV P34S) | EC50 (rCHIKV S454G + W456R) [µM] | Sensitivity or resistance of CHIKV nsP1-S454G+W456R to the compound (rCHIKV S454G + W456R) | Inhibition of formation of the covalent [32P]m7GMP-nsP1 complex (wt SFV nsP1 [2]) | CC50 (Vero E6 cells; African green monkey) [µM] | CC50 (in vitro) [µM] | Inhibition of formation of the covalent [32P]m7GMP-nsP1 intermediate (wt CHIKV nsP1) | other results
1 | 6′-β-Fluoro-homoaristeromycin [FHA] | 2.3 | 1.6 ± 0.2 | 14.3 | > 10 | resistant | 1 |  |  |  |  |  |  |  |  |  | EC50 (CHIKV; CHIKV, multicycle CPE reduction assay, Vero E6 cells, 96 h, read-out: EC50, concentration that reduces virus-induced CPE by 50%): 0.7 ± 0.08 µM; EC50 (CHIKV; Table 2, wt CHIKV, CPE reduction assay, Vero E6 cells, read-out: EC50 for wt CHIKV): 0.7 ± 0.08 µM; EC50 (SFV; 32 h): 3.9 ± 3.5 µM; CC50 (Vero E6 cells): > 250 µM; Activity against SINV (SINV): inactive
2 | Nc1ncnc2c1ncn2C1C(F)=C(CCO)C(=O)C1O (stereo not drawn) [3′-Keto form of FHNA] |  |  |  |  |  |  |  |  |  |  |  |  |  |  |  | Inhibition of formation of the covalent [32P]m7GMP-nsP1 intermediate (wt SFV nsP1 [1]; wt SFV nsP1): only partially inhibited
3 | Nc1ncnc2c1ncn2[C@@H]1O[C@H](C[C@@H](N)CC[C@H](N)C(=O)O)[C@@H](O)[C@H]1O [Sinefungin, reference compound] | <1 | 151 ± 2.5 | 1.5 | 274.5 ± 0.2 | sensitive | <1 | 185 ± 38.4 | 185 ± 38.4 | sensitive | 110 ± 3.9 | sensitive | very inefficient inhibitor | > 1000 | > 1000 |  | Effect on GTase activity in reactions lacking SAM (wt SFV nsP1 [2]; wt SFV nsP1, 50 μM sinefungin, no SAM, Fig. 3B): appeared to stimulate GTase activity; Reduction of the [32P]m7GMP-nsP1 signal (wt CHIKV nsP1; 1 mM compound, Fig. 3D): reduced the signal slightly; Reduction of the [32P]m7GMP-nsP1 signal (wt CHIKV nsP1; 125 to 500 μM compound, Fig. 3D): did not lead to any reduction in the signal; Inhibition of VEEV nsP1 (VEEV nsP1): inhibits; Inhibition of CHIKV nsP1 (CHIKV nsP1): inhibits
4 | CCC1=NC2C(N=NN2c2cccc(OC(C)C)c2)C(=O)N1 (stereo not drawn) [MADTP-372] | 9.3 | > 25 | <1 | 1.2 ± 0.2 |  | 9.3 | 2.7 ± 0.2 | 2.7 ± 0.2 | completely resistant | > 25 | cross-resistant | less effectively | > 100 | > 100 | in a dose-dependent manner | Inhibition of GTase activity of VEEV nsP1 (VEEV nsP1): inhibit the GTase activity
5 | CCNc1nc(C)cc(N2CCN(C(=O)c3ccc(F)cc3)CC2)n1 [CHVB-032] | 14.4 | 52.4 ± 0.8 | 1 | 3.4 ± 0.2 |  | 29.4 | 3.4 ± 0.3 | 3.4 ± 0.3 |  | > 100 | completely resistant | completely blocked | > 100 | > 100 | in a dose-dependent manner | 
6 | NC(=O)c1nc(F)c[nH]c1=O [Favipiravir, reference compound] | 1.2 | 95.9 ± 12.8 | 1.7 | 135 ± 5 | sensitive | 1.1 |  | 79.8 ± 1.4 | sensitive | 89.5 ± 0.2 | sensitive |  |  |  |  | 
7 | Nc1ncnc2c1ncn2C1C(F)=C(CCO)C(O)C1O (stereo not drawn) [FHNA, 6′-fluoro-homoneplanocin A] | 2.4 | 2.8 ± 0.3 | 8.6 | > 10 | resistant | 1 | 1.2 ± 0.03 | 1.2 ± 0.03 |  | 1.2 ± 0.1 |  |  | > 250 | > 250 |  | EC50 (SFV; Semliki Forest virus, Vero C1008, 32 h): 3.9 to 5.2 µM; EC50 (SFV; 32 h): 5.2 ± 3.2 µM; Reduction of the [32P]m7GMP-nsP1 signal (wt CHIKV nsP1; with or without DTT, 12.5 to 500 μM compound, Fig. 3E): no reduction in the signal; Inhibition of formation of the covalent [32P]m7GMP-nsP1 intermediate (wt SFV nsP1 [1]; modified SFV nsP1 assay lacking DTT, not shown): to a lesser extent; Activity against SINV (SINV): inactive
8 | CCNc1nc(C)cc(N2CCN(C(=O)c3ccc(C)cc3)CC2)n1 [CHVB-066] | 20.8 | > 12.5 | <1 | 0.3 ± 0.04 |  | 20.8 | < 1 | 0.6 ± 0.1 | completely resistant | > 12.5 |  | completely blocked |  | 25 | in a dose-dependent manner | Inhibition of GTase activity of VEEV nsP1 (VEEV nsP1): inhibit the GTase activity
9 | CNc1ncnc2c1ncn2C1C(O)C(O)C(CCO)C1F (stereo not drawn) [FMA, 6′-β-fluoro-N^6-methyladenosine] |  |  |  |  |  |  |  |  |  |  |  |  |  |  |  | Activity in CHIKV CPE reduction assays (CHIKV; source of the data not stated): inactive
